Experimental findings from patent US20230066011A1, “PYRROLOPYRIMIDINE DERIVATIVE, AND PHARMACEUTICAL COMPOSITION FOR PREVENTING OR TREATING PROTEIN KINASE-RELATED DISEASE COMPRISING SAME AS ACTIVE INGREDIENT” (VORONOI CO., LTD., priority 2019, published 2023) are described below.

One assay addresses LRRK2 (G2019S) (Homo sapiens, UniProt Q5S007, G2019S). Description: LRRK2 G2019S enzyme inhibition, ADP-Glo kinase assay. Type of assay: biochemical. On the set-up: purchased SignalChem L10-12GG. The following applies: ATP 25 μM. In a few lines: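 Purified human LRRK2 G2019S (16 ng) with 25 μM ATP and 0.2 μg substrate, 2 h at 25° C. in Tris-HCl pH 7.4, MgCl2, BSA, DTT buffer; compounds at 12 final concentrations, 50 μM down to 0.000001024 μM. ADP-Glo luminescence versus solvent control gave IC50.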
(In general: ADP-Glo first removes unused ATP, then detects ADP through luciferase.)

In the next assay the test system is IL-6. The experiment in a line: Inhibition of LPS-induced IL-6 secretion of THP-1 monocytes (ELISA). It counts as cell-based, human. The conditions noted are these: Homo sapiens, THP-1; compound 0.5 μM, LPS 500 ng/mL, 24 hours; read-out: THP1/IL6 (% inhib). How it is done:
(§1) To evaluate an inhibitory effect on cytokine secretion of monocytes, THP-1 cells (ATCC, #TIB-202) as a human-derived monocyte line were cultured in an RPMI-1640 (Hyclone, SH30027.01) medium supplemented with 10% fetal bovine serum (Hyclone, SH30084.03), 1% penicillin streptomycin (Welgene, LS202-02), and 50 μM 2-mercaptoethanol (Gibco, #21985023). In the test, the cells were seeded in a 48-well plate (SPL, #30048) at a density of 1.5 to 2×10^5 cells/250 μL per well, and cultured at 37° C. for 16 hours in a 5% CO2 incubator. Thereafter, the compound was diluted with DMSO so that the final concentration of the compound was 0.5 μM. Then, the cells were treated with the diluted compound before an hour of treatment with lipopolysaccharides (LPS) (Sigma, #L6529). After the treatment with the compound, the cells were treated with LPS so that the final concentration was 500 ng/mL. Then, a cell culture broth was collected after 24 hours of culture, and levels of cytokine IL-6 (R&D Systems, #D6050) and TNF-α (R&D Systems, #DTA00D) comprised in the culture broth were measured using respective ELISA kits. After an experiment was performed according to the manufacturer's guidelines, cell analysis was performed by measuring the optical density at 450 nm using a microplate reader.
(In general: An ELISA detects its analyte on a solid surface through an enzyme-linked reagent.)

The target in another assay is LRRK2 (Homo sapiens, UniProt Q5S007). The experiment in a line: LRRK2 enzyme inhibition, ADP-Glo kinase assay. The following applies: ATP 10 μM. On the set-up: purchased Invitrogen PR8604B. Type of assay: biochemical. In a few lines: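 Purified human LRRK2 (25 ng) with 10 μM ATP and 0.2 μg substrate in 40 mM Tris-HCl pH 7.4, 20 mM MgCl2, 0.5 mg/mL BSA, 50 μM DTT, 2 h at 25° C. ADP-Glo luminescence; 12-point compound series from 50 μM final; IC50 relative to solvent control.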
LRRK2, sequence (Q5S007 970-2527 limits assumed): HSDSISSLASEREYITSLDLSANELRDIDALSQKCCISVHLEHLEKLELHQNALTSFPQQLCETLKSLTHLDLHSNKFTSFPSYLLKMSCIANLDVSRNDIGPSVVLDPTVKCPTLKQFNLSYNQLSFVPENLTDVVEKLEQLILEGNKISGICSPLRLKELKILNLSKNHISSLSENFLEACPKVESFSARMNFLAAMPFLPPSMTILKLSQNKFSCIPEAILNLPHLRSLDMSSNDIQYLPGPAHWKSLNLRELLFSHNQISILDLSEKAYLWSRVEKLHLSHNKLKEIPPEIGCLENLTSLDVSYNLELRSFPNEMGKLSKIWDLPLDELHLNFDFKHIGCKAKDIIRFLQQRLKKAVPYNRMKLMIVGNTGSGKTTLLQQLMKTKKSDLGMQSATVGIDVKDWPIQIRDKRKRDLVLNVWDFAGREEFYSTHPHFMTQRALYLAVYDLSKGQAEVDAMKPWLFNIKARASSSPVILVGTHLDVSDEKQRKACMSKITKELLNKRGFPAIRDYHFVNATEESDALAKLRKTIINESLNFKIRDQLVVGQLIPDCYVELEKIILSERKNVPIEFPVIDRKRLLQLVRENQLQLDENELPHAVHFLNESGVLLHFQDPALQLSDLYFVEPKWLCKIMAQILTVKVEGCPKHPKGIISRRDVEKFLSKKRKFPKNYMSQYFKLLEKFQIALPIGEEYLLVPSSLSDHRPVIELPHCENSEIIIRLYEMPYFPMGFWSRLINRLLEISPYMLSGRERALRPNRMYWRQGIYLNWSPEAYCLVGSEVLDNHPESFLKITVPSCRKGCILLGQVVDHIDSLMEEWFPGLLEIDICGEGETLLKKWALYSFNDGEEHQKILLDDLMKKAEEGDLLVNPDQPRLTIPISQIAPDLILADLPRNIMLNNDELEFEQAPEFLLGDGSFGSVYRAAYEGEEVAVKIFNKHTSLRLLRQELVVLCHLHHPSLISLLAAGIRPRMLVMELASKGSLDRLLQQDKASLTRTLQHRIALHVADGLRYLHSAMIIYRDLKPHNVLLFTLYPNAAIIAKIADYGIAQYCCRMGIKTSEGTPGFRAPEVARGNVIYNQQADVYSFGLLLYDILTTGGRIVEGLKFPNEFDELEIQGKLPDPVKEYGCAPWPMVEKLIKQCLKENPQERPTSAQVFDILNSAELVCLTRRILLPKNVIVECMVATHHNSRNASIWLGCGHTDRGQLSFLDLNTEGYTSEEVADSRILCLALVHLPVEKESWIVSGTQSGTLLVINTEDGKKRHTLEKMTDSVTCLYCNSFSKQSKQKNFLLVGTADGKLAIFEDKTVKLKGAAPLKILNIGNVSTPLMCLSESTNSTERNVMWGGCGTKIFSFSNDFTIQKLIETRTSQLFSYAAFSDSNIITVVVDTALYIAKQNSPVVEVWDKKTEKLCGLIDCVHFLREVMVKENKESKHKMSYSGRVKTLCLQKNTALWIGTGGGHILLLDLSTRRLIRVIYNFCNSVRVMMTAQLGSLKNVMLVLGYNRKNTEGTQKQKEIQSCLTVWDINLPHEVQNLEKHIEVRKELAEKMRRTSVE

The next assay has as its target T1, human GST-CLK1 (Homo sapiens, UniProt P49759).
T1 construct: purified human GST-CLK1 (129-end, SignalChem) enzyme; purchased SignalChem
The experiment in a line: GST-CLK1 enzyme inhibition, ADP-Glo kinase assay. It counts as biochemical. The conditions noted are these: ATP 10 μM, GST-CLK1 129-end. In a few lines:
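Human GST-CLK1 (129-end, 3 ng) reacted with substrate and 10 μM ATP for 1 h at 25° C in 40 mM Tris-HCl pH 7.4, 20 mM MgCl2, 0.5 mg/mL BSA, 50 μM DTT. ADP-Glo luminescence was normalised to solvent control; IC50 (nM) from 3 data sets.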

Another assay has as its system TNF-α. The experiment in a line: Inhibition of LPS-induced TNF-α secretion of THP-1 monocytes (ELISA). Type of assay: cell-based, human. The following applies: Homo sapiens, THP-1; compound 0.5 μM, LPS 500 ng/mL, 24 hours; read-out: THP-1/TNF-α (% inhib). How it is done:
as §1

The target of another assay is T2, human GST-DYRK1A (Homo sapiens, UniProt Q13627).
T2 construct: purified human GST-DYRK1A (full length, Thermo Scientifics) enzyme; purchased Thermo Scientifics
The experiment in a line: GST-DYRK1A enzyme inhibition, ADP-Glo kinase assay. Type of assay: biochemical. The following applies: ATP 10 μM, GST-DYRK1A full length, read-out: DYRK1 IC50. An outline of the steps:
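Full-length human GST-DYRK1A (10 ng) with 10 μM ATP and specific substrate in 40 mM Tris-HCl pH 7.4, 20 mM MgCl2, 0.5 mg/mL BSA, 50 μM DTT, 1 h at 25 °C. ADP formation read by ADP-Glo luminescence relative to solvent control; IC50 from three data sets.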

The test system of the next assay is human DYRK1A and tau. The experiment in a line: Inhibition of tau phosphorylation, ClariCELL Kinase Cell-Based Assay, HEK 293 cells expressing human DYRK1A and tau. The conditions noted are these: for inhibition at 1 µM: HEK293, read-out: % inhibition at 1 uM, tau phosphorylation, compound 1 uM; for inhibition at 0.25 µM / inhibition at 0.5 µM: HEK293, tau phosphorylation; for inhibition at 0.25 µM: compound 0.25 uM; for inhibition at 0.5 µM: compound 0.5 uM. The protocol:
An inhibitory effect on tau phosphorylation was determined using the ClariCELL™ Kinase Cell-Based Assay service (commercially available from CamaBio USA, Inc.). Human embryonic kidney (HEK 293) cells temporarily expressing human DYRK1A and tau were exposed to the compound, and then lysed to release cell proteins. In this case, the released tau was captured on a plate, and a degree of phosphorylation was quantified by ELISA using a tau phosphorylation-specific antibody.

T1 sequence (P49759 129-484 limits assumed): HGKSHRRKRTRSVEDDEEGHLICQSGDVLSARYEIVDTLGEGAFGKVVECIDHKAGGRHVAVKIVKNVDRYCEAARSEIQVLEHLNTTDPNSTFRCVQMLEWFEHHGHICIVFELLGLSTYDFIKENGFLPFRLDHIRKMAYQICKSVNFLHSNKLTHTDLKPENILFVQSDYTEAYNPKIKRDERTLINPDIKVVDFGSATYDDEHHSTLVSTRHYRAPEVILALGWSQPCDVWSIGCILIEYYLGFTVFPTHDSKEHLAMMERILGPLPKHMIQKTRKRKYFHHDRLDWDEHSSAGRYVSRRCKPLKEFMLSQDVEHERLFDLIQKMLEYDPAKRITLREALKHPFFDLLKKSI
LRRK2 (G2019S), sequence (Q5S007 970-2527 G2019S limits assumed): as the sequence (Q5S007 970-2527 limits assumed) above, with G1050S counted along it

As a reminder, the IC50 is the concentration needed to halve the response being measured. Regarding `CCNc1nc(Nc2ccc(C(=O)N3CCC(N4CCOCC4)CC3)c3c2OCO3)nc2[nH]cc(C(F)(F)F)c12` [Example 213, (7-((4-(ethylamino)-5-(trifluoromethyl)-7H-pyrrolo[2,3-d]pyrimidin-2-yl)amino)benzo[d][1,3]dioxol-4-yl)(4-morpholinopiperidin-1-yl)methanone], the IC50 against LRRK2 (G2019S), against LRRK2, against human GST-CLK1 and at human GST-DYRK1A was less than 100 nM each time. Also, the inhibition at 0.5 µM with IL-6 amounted to 32.4%; in the assay with TNF-α, 11.5%.
Turning to `CNc1nc(Nc2ccc(C(=O)N3CCC(N4C[C@@H]5C[C@H]4CO5)CC3)c3c2OCC3)nc2[nH]cc(C(F)(F)F)c12` [Example 230, (4-((1S,4S)-2-oxa-5-azabicyclo[2.2.1]heptan-5-yl)piperidin-1-yl)(7-((4-(methylamino)-5-(tifluoromethyl)-7H-pyrrolo[2,3-d]pyrimidin-2-yl)amino)-2,3-dihydrobenzofuran-4-yl)methanone], the IC50 on LRRK2 (G2019S), against LRRK2, against human GST-CLK1 and at human GST-DYRK1A was less than 100 nM throughout. Moreover, the inhibition at 0.5 µM amounted to 34% in the assay with IL-6 and 1% in the assay on TNF-α.
As to `CNc1nc(Nc2ccc(C(=O)N3CC[C@@H](N4CCOCC4)C3)c3c2OCC3)nc2[nH]cc(C(F)(F)F)c12` [Example 237, (R)-(7-((4-(methylamino)-5-(trifluoromethyl)-7H-pyrrolo[2,3-d]pyrimidin-2-yl)amino)-2,3-dihydrobenzofuran-4-yl)(3-morpholinopyrrolidin-1-yl)methanone], the IC50 against LRRK2 (G2019S), at LRRK2, against human GST-CLK1 and on human GST-DYRK1A was less than 100 nM in each case. The figures for the inhibition at 0.5 µM in the assay on IL-6 and with TNF-α were 41.1% and 18.9%, respectively.
In the case of `CCCNc1nc(Nc2ccc(C(=O)N3CCC(N4CCOCC4)CC3)c3c2OCC3)nc2[nH]cc(C#N)c12` [Example 349, 2-((4-(4-morpholino-piperidine-1-carbonyl)-2,3-dihydro-benzofuran-7-yl)amino)-4-(propylamino)-7H-pyrrolo[2,3-d]pyrimidine-5-carbonitrile], the inhibition at 1 µM in the assay on human DYRK1A and tau stood at 53.4%. Further, the inhibition at 0.25 µM in the assay with human DYRK1A and tau stood at 21%. The inhibition at 0.5 µM was 37% in the assay with human DYRK1A and tau; 32.9% in the assay on IL-6; 36.7% with TNF-α. In addition, the IC50 on human GST-CLK1 and at human GST-DYRK1A was less than 100 nM throughout.
`COCCNc1nc(Nc2ccc(C(=O)N3CCC(N4CCOCC4)CC3)c3c2OCCO3)nc2[nH]cc(C(F)(F)F)c12` [Example 366, (8-((4-((2-methoxyethyl)amino)-5-(trifluoromethyl)-7H-pyrrolo[2,3-d]pyrimidin-2-yl)amino)-2,3-dihydrobenzo[b] [1,4]dioxin-5-yl) (4-morpholino-piperidin-1-yl)methanone]: the IC50 against LRRK2 (G2019S), at LRRK2, on human GST-CLK1 and at human GST-DYRK1A was less than 100 nM throughout. Moreover, the inhibition at 0.5 µM in the assay with IL-6 is 1.1%; in the assay with TNF-α, 19.2%.
As for `O=C(c1ccc(Nc2nc(N[C@@H]3CCOC3)c3c(C(F)(F)F)c[nH]c3n2)c2c1OCCO2)N1CCN(C2COC2)CC1` [Example 416, (R)-(4-(oxetan-3-yl)piperazin-1-yl)(8-((4-((tetrahydrofuran-3-yl)amino)-5-(trifluoromethyl)-7H-pyrrolo[2,3-d]pyrimidin-2-yl)amino)-2,3-dihydrobenzo[b] [1,4]dioxin-5-yl)methanone], the IC50 at LRRK2 (G2019S), against human GST-CLK1 and at human GST-DYRK1A was less than 100 nM each time. Also, the inhibition at 1 µM with human DYRK1A and tau was determined as 86.8%. Also, in the assay on human DYRK1A and tau, the inhibition at 0.25 µM was determined as 54.2%. Also, the inhibition at 0.5 µM was 75.9% in the assay on human DYRK1A and tau; 45.6% in the assay with IL-6; 8.1% in the assay with TNF-α.
On to `O=C(c1ccc(Nc2nc(NC3CCOCC3)c3c(C(F)(F)F)c[nH]c3n2)c2c1OCCO2)N1CCN(C2COC2)CC1` [Example 420, (4-(oxetan-3-yl)piperazin-1-yl)(8-((4-((tetrahydro-2H-pyran-4-yl)amino)-5-(trifluoromethyl)-7H-pyrrolo[2,3-d]pyrimidin-2-yl)amino)-2,3-dihydrobenzo[b] [1,4]dioxin-5-yl)methanone], for which the inhibition at 0.5 µM in the assay on IL-6 turned out to be 20.2%; with TNF-α it was 31.6%. Also, the half-maximal inhibitory concentration (IC50) against LRRK2, against human GST-CLK1 and at human GST-DYRK1A was less than 100 nM in each case.
Take `COCCNc1nc(Nc2ccc(C(=O)N3CCOCC3)c3c2OCC3)nc2[nH]cc(C(F)(F)F)c12` [Example 442, (7-((4-((2-methoxyethyl)amino)-5-(trifluoromethyl)-7H-pyrrolo[2,3-d]pyrimidin-2-yl)amino)-2,3-dihydrobenzo-furan-4-yl) (morpholino) methanone]: in the assay with human DYRK1A and tau, the inhibition at 1 µM was found to be 80.8%. The compound further yielded an inhibition at 0.25 µM in the assay with human DYRK1A and tau of 45%. The inhibition at 0.5 µM stood at 51.5% in the assay with human DYRK1A and tau; 31.4% in the assay on IL-6; 1.9% in the assay with TNF-α. Besides, the IC50 at human GST-CLK1 and on human GST-DYRK1A was less than 100 nM each time.
With `CC(C)CNc1nc(Nc2ccc(C(=O)N3CCC(N4CCOCC4)CC3)c3c2OCC3)nc2[nH]cc(C(F)(F)F)c12` [Example 448, (7-((4-(iso-butylamino)-5-(trifluoromethyl)-7H-pyrrolo[2,3-d]pyrimidin-2-yl)amino)-2,3-dihydrobenzo-furan-4-yl)(4-morpho-linopiperidin-1-yl)methanone], the IC50 is less than 100 nM against LRRK2 (G2019S), less than 100 nM against LRRK2, less than 100 nM against human GST-CLK1 and 101 to 300 nM on human GST-DYRK1A. In addition, the inhibition at 0.5 µM turned out to be 26.2% with IL-6 and 17.7% with TNF-α.
As to `CC(C)Nc1nc(Nc2ccc(C(=O)N3CCC(N4CCOCC4)CC3)c3c2OCC3)nc2[nH]cc(C(F)(F)F)c12` [Example 450, (7-((4-(isopropylamino)-5-(trifluoromethyl)-7H-pyrrolo[2,3-d]pyrimidin-2-yl)amino)-2,3-dihydrobenzo-furan-4-yl)(4-morpho-linopiperidin-1-yl)methanone], the inhibition at 1 µM in the assay with human DYRK1A and tau worked out at 84.9%. The inhibition at 0.25 µM in the assay with human DYRK1A and tau came out at 37.2%. Further, the inhibition at 0.5 µM amounted to 66.8% in the assay with human DYRK1A and tau; 11.4% in the assay with IL-6; 7.5% with TNF-α. In addition, the IC50 against human GST-CLK1 and on human GST-DYRK1A was less than 100 nM each time.
Consider `CCNc1nc(Nc2ccc(C(=O)N3CC[C@@H](N4CCOCC4)C3)c3c2OCC3)nc2[nH]cc(C(F)(F)F)c12` [Example 476, (R)-(7-((4-(ethylamino)-5-(trifluoromethyl)-7H-pyrrolo[2,3-d]pyrimidin-2-yl)amino)-2,3-dihydrobenzo-furan-4-yl)(3-morpholino-pyrrolidin-1-yl)methanone], for which the IC50 at LRRK2 (G2019S), at LRRK2, at human GST-CLK1 and at human GST-DYRK1A was less than 100 nM each time. Moreover, the inhibition at 0.5 µM in the assay with IL-6 was 47.4%; in the assay on TNF-α, 24.5%.
